According to PubChem BioAssay (NCI):
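Following 48 hours of exposure in 96-well plates, responses at five concentrations were used to interpolate endpoints linearly. The concentration for 50% growth inhibition is given as GI50. TGI marks complete inhibition of growth.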

Assays:
Assay in all cases: inhibition of tumour cell growth, NCI panel, 48 h; in the data active = GI50 below about 0.43 µM; inactive = the rest
RPMI-8226 leukemia = system: RPMI-8226 leukemia
PC-3 prostate = system: PC-3 prostate
HOP-92 NSCLC = system: HOP-92 NSCLC
MOLT-4 leukemia = system: MOLT-4 leukemia
ACHN renal = system: ACHN renal
DU-145 prostate = system: DU-145 prostate
UACC-62 melanoma = system: UACC-62 melanoma
HS 578T breast = system: HS 578T breast
CAKI-1 renal = system: CAKI-1 renal
SNB-75 CNS = system: SNB-75 CNS
A549 NSCLC = system: A549 NSCLC
RXF 393 renal = system: RXF 393 renal
MDA-MB-435 = system: MDA-MB-435
HOP-62 NSCLC = system: HOP-62 NSCLC
MCF7 breast = system: MCF7 breast
U251 CNS = system: U251 CNS
UO-31 renal = system: UO-31 renal
HT29 colon = system: HT29 colon
SK-MEL-28 melanoma = system: SK-MEL-28 melanoma
SK-MEL-5 melanoma = system: SK-MEL-5 melanoma
BT-549 breast = system: BT-549 breast
SF-295 CNS = system: SF-295 CNS
SK-MEL-2 melanoma = system: SK-MEL-2 melanoma
SW-620 colon = system: SW-620 colon
OVCAR-3 ovarian = system: OVCAR-3 ovarian
CCRF-CEM leukemia = system: CCRF-CEM leukemia
T-47D breast = system: T-47D breast
SF-268 CNS = system: SF-268 CNS
TK-10 renal = system: TK-10 renal
HCT-15 colon = system: HCT-15 colon
NCI-H226 lung = system: NCI-H226 lung
K-562 leukemia = system: K-562 leukemia
KM12 colon = system: KM12 colon
SF-539 CNS = system: SF-539 CNS
NCI-H522 lung = system: NCI-H522 lung
SR leukemia = system: SR leukemia
OVCAR-4 ovarian = system: OVCAR-4 ovarian
HCC-2998 colon = system: HCC-2998 colon
SN12C renal = system: SN12C renal
HL-60(TB) leukemia = system: HL-60(TB) leukemia
786-0 renal = system: 786-0 renal
COLO 205 colon = system: COLO 205 colon
HCT-116 colon = system: HCT-116 colon
M14 melanoma = system: M14 melanoma
MDA-MB-231 breast = system: MDA-MB-231 breast
OVCAR-8 ovarian = system: OVCAR-8 ovarian
LOX IMVI melanoma = system: LOX IMVI melanoma
OVCAR-5 ovarian = system: OVCAR-5 ovarian
NCI/ADR-RES ovarian = system: NCI/ADR-RES ovarian
NCI-H460 lung = system: NCI-H460 lung
NCI-H23 lung = system: NCI-H23 lung
UACC-257 melanoma = system: UACC-257 melanoma
SNB-19 CNS = system: SNB-19 CNS
IGROV1 ovarian = system: IGROV1 ovarian
SK-OV-3 ovarian = system: SK-OV-3 ovarian

CC(C)N(CCCNC(=O)Nc1ccc(C(C)(C)C)cc1)C[C@H]1O[C@@H](n2ccc3c(N)ncnc32)[C@H](O)[C@@H]1O
inactive: GI50 (RPMI-8226 leukemia) > 100 µM | GI50 (PC-3 prostate) > 100 µM | GI50 (HOP-92 NSCLC) > 100 µM | GI50 (MOLT-4 leukemia) > 100 µM | GI50 (ACHN renal) > 100 µM | GI50 (DU-145 prostate) > 100 µM | GI50 (UACC-62 melanoma) > 100 µM | GI50 (HS 578T breast) > 100 µM | GI50 (CAKI-1 renal) > 100 µM | GI50 (SNB-75 CNS) 26.2 µM | GI50 (A549 NSCLC) > 100 µM | GI50 (RXF 393 renal) > 100 µM | GI50 (MDA-MB-435) > 100 µM | GI50 (HOP-62 NSCLC) > 100 µM | GI50 (MCF7 breast) > 100 µM | GI50 (U251 CNS) > 100 µM | GI50 (UO-31 renal) > 100 µM | GI50 (HT29 colon) > 100 µM | GI50 (SK-MEL-28 melanoma) > 100 µM | GI50 (SK-MEL-5 melanoma) > 100 µM | GI50 (BT-549 breast) > 100 µM | GI50 (SF-295 CNS) > 100 µM | GI50 (SK-MEL-2 melanoma) > 100 µM | GI50 (SW-620 colon) > 100 µM | GI50 (OVCAR-3 ovarian) > 100 µM | GI50 (CCRF-CEM leukemia) > 100 µM | GI50 (T-47D breast) > 100 µM | GI50 (SF-268 CNS) > 100 µM | GI50 (TK-10 renal) > 100 µM | GI50 (HCT-15 colon) > 100 µM | GI50 (NCI-H226 lung) > 100 µM | GI50 (K-562 leukemia) > 100 µM | GI50 (KM12 colon) > 100 µM | GI50 (SF-539 CNS) > 100 µM | GI50 (NCI-H522 lung) > 100 µM | GI50 (SR leukemia) > 100 µM | GI50 (OVCAR-4 ovarian) > 100 µM | GI50 (HCC-2998 colon) > 100 µM | GI50 (SN12C renal) > 100 µM | GI50 (HL-60(TB) leukemia) > 100 µM | GI50 (786-0 renal) > 100 µM | GI50 (COLO 205 colon) > 100 µM | GI50 (HCT-116 colon) > 100 µM | GI50 (M14 melanoma) > 100 µM | GI50 (MDA-MB-231 breast) > 100 µM | GI50 (OVCAR-8 ovarian) > 100 µM | GI50 (LOX IMVI melanoma) > 100 µM | GI50 (OVCAR-5 ovarian) > 100 µM | GI50 (NCI/ADR-RES ovarian) > 100 µM | GI50 (NCI-H460 lung) > 100 µM | GI50 (NCI-H23 lung) > 100 µM | GI50 (UACC-257 melanoma) > 100 µM | GI50 (SNB-19 CNS) > 100 µM | GI50 (IGROV1 ovarian) > 100 µM | GI50 (SK-OV-3 ovarian) > 100 µM
> 100 µM: TGI (RPMI-8226 leukemia) | TGI (PC-3 prostate) | TGI (HOP-92 NSCLC) | TGI (MOLT-4 leukemia) | TGI (ACHN renal) | TGI (DU-145 prostate) | TGI (UACC-62 melanoma) | TGI (HS 578T breast) | TGI (CAKI-1 renal) | TGI (SNB-75 CNS) | TGI (A549 NSCLC) | TGI (RXF 393 renal) | TGI (MDA-MB-435) | TGI (HOP-62 NSCLC) | TGI (MCF7 breast) | TGI (U251 CNS) | TGI (UO-31 renal) | TGI (HT29 colon) | TGI (SK-MEL-28 melanoma) | TGI (SK-MEL-5 melanoma) | TGI (BT-549 breast) | TGI (SF-295 CNS) | TGI (SK-MEL-2 melanoma) | TGI (SW-620 colon) | TGI (OVCAR-3 ovarian) | TGI (CCRF-CEM leukemia) | TGI (T-47D breast) | TGI (SF-268 CNS) | TGI (TK-10 renal) | TGI (HCT-15 colon) | TGI (NCI-H226 lung) | TGI (K-562 leukemia) | TGI (KM12 colon) | TGI (SF-539 CNS) | TGI (NCI-H522 lung) | TGI (SR leukemia) | TGI (OVCAR-4 ovarian) | TGI (HCC-2998 colon) | TGI (SN12C renal) | TGI (HL-60(TB) leukemia) | TGI (786-0 renal) | TGI (COLO 205 colon) | TGI (HCT-116 colon) | TGI (M14 melanoma) | TGI (MDA-MB-231 breast) | TGI (OVCAR-8 ovarian) | TGI (LOX IMVI melanoma) | TGI (OVCAR-5 ovarian) | TGI (NCI/ADR-RES ovarian) | TGI (NCI-H460 lung) | TGI (NCI-H23 lung) | TGI (UACC-257 melanoma) | TGI (SNB-19 CNS) | TGI (IGROV1 ovarian) | TGI (SK-OV-3 ovarian)
